Experimental data published in patent US7834152B2, “Antagonists of interleukin-15” (Beth Israel Deaconess Medical Center, Inc., priority 1996, dated 2010).
Entries after “also recorded” stand apart in the source; their conditions may differ. Like-named read-outs stand apart in the source and are kept apart here.

Assays:
[1] = tested on: PHA-activated PBMCs; experiment: Proliferative response to IL-2 or IL-15 of PBMCs pre-treated with immunosuppressive drugs and PHA; settings: cells pre-treated with PHA and drug, washed, cultured with IL-2 2 days
[2] = tested on: human PBMCs
[3] = tested on: BAF-BO3 cells transfected with pRcCMV-IL-2Rβ; experiment: [3H]-TdR proliferation assay, BAF-BO3 cells expressing human IL-2Rβ; type: cell-based, murine; settings: for cell proliferation ([3H]-TdR incorporation): cells expressing wild-type human IL-2Rβ subunit
Protocol: (§1) The BAF-BO3 cell line is an IL-3-dependent, murine pro-B cell line. A BAF-BO3 cell line that was pre-selected for high expression of the IL-2Rα subunit was kindly provided by T. Taniguchi (Osaka, Japan; Hatakeyama et al., Cell 59:837, 1989). BAF-BO3 cells were transfected with vector control (pRcCMV-0) or cDNA encoding the human IL-2Rβ subunit cloned into pRcCMV (pRcCMV-IL-2Rβ), by electroporation at 350 volts and 500 μFarads using 20 μg of ScaI linearized plasmid. Transfected cells were selected in the presence of 1 mg/ml G418 and tested for the expression of the IL-2Rβ subunit by fluorescence activated cell sorting (FACS) analysis as described (Maslinski et al., Int. Immunol. 4:509, 1992; Hataleyama et al., Cell 59:837, 1989).
IL-3 dependent BAF-BO3 cells, which constitutively express the IL-2Rγ subunit, were transfected with a control pRcCMV construct (pRcCMV-0) or a pRcCMV construct containing cDNA encoding the full-length human IL-2Rβ_subunit and the neo^r gene (pRcCMV-IL-2Rβ). G418 resistant clones were then selected. Cells that were selected in this way were used to test the biological activity of FLAG-HMK-IL-15. […] Cells were washed twice to remove the medium containing the growth factor IL-3, and starved for 16 hours in RPMI-1640 medium supplemented with 10% FCS, penicillin (0.5 U/ml), and streptomycin (0.5 μg/ml). Cells were then plated at 2×10^4 cells/well, stimulated with FLAG-HMK-IL-15, and cultured for 72 hours at 37° C. in an atmosphere containing 5% CO2. This was followed by a 14 hour “pulse” with 1 μCi of [^3H]-TdR. The BAF-BO3 cells were then harvested and cell-associated radioactivity was measured by scintillation counting as described above.
In order to study the effect of various IL-15 related proteins, including the mutant polypeptides described above, on the proliferation of BAF-BO3 cells, the following experiment was performed in vitro. BAF-BO3 cells were transfected in culture with DNA from either pRcCMV-IL-2Rβ or pRcCMV-0.

[4] = biological target: T1, IL-15Rα subunit (Homo sapiens, UniProt Q13261); experiment: Cross-linking of [32P]-FLAG-HMK-IL-15 to PHA-activated PBMCs (DSS, SDS-PAGE, autoradiography); type: binding
T1 construct: endogenous in cells
T1 sequence (Q13261 31-267): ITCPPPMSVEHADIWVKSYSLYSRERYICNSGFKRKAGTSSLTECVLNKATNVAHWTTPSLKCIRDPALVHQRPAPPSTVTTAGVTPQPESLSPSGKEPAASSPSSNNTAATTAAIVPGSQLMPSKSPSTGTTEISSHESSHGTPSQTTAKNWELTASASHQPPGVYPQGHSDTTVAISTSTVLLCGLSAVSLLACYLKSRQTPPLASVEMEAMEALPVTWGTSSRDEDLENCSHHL
Protocol: After 72 hours in culture, PHA-activated PBMCs were washed twice in cold phosphate-buffered saline (PBS), and 10^7 cells/ml were incubated for 30 minutes at 4° C. in 400 μl of RMPI-1640 medium supplemented with 25 mM HEPES (pH 7.4), 10% FCS, penicillin (0.5 U/ml), and streptomycin (0.5 μg/ml). Supplemented RPMI-1640 medium (20 μl) containing 1 μg of recombinant human IL-15 as a control for non-specific binding or medium alone was then added, and the incubation was continued for 15 minutes before 20 μl of medium containing [^32P]-labeled FLAG-HMK-IL-15 (1 ng, 500,000 cpm) was added to each sample. After further incubation for 1 hour at 4° C., the cells were washed with PBS and resuspended in 250 μl of PBS. Disuccinimidyl suberate (DDS; 1 mM), a cross-linker, was added, and cross-linking was performed as described by Tsudo et al. (Proc. Natl. Acad. Sci. USA 83:9694, 1986). The cross-linked cells were collected by centrifugation, washed, solubilized with extraction buffer (2% Nonidet P-40, 0.14 M NaCl, 25 mM HEPES (pH 7.4), 1 mM phenyl-methylsulfonyl fluoride) and centrifuged. Proteins present in the supernatants of these cell lysates were separated by 8% SDS-PAGE under reducing conditions. An autoradiogram was developed from the dry gel after exposure at −70° C. overnight. […]

[5] = tested on: PHA-activated human PBMCs; experiment: [3H]-TdR proliferation assay, PHA-activated human PBMCs; type: cell-based; settings: PHA-activated PBMCs re-stimulated with reagent
Protocol: Peripheral blood mononuclear cells (1×10^6/ml) were stimulated with PHA (2 μg/ml) for 72 hours at 37° C. in RPMI-1640 medium supplemented with 10% FCS, penicillin, and streptomycin, as described above.
In the next series of experiments, the FLAG-HMK-IL-15 fusion protein was tested in order to determine whether it could function as a biologically active growth factor.

[6] = tested on: BAF-BO3 cells transfected with pRcCMV-0; experiment: [3H]-TdR proliferation assay, BAF-BO3 vector control cells; type: cell-based, murine; settings: vector lacking IL-2Rβ chain sequences
Protocol: as §1
IL-3 dependent BAF-BO3 cells, which constitutively express the IL-2Rγ subunit, were transfected with a control pRcCMV construct (pRcCMV-0) or a pRcCMV construct containing cDNA encoding the full-length human IL-2Rβ_subunit and the neo^r gene (pRcCMV-IL-2Rβ). G418 resistant clones were then selected. Cells that were selected in this way were used to test the biological activity of FLAG-HMK-IL-15. […] The BAF-BO3 cells were then harvested and cell-associated radioactivity was measured by scintillation counting as described above. […]

[7] = tested on: leukemia cells (MOLT-14, YT, HuT-102, 2A, 2B); experiment: Flow cytometry staining of leukemic cell lines with FLAG-HMK-IL-15; type: binding
Protocol: The cells treated were from the leukemic cell lines MOLT-14, YT, HuT-102, and from cell lines currently being established at Beth Israel Hospital (Boston, Mass.), and designated 2A and 2B. The cultured cells were washed and incubated with either medium alone (tracing alone) or with medium containing the FLAG-HMK-IL-15 polypeptide (tracing filled in). The cells were then incubated with the biotinylated anti-FLAG antibody and stained with RED670-conjugated streptavidin. The stained cells were analyzed by flow cytometry.
The cells treated were obtained from the leukemic cell lines MOLT-14, YT, HuT-102, and from cell lines currently being established at Beth Israel Hospital (Boston, Mass.), and named 2A and 2B. The cultured cells were washed and incubated with either medium alone or with medium containing the FLAG-HMK-IL-15 wild-type polypeptide (FIG. 18). The cells were then incubated with the biotinylated anti-FLAG antibody and stained with RED670-conjugated streptavidin. The stained cells were analyzed by flow cytometry.

[8] = tested on: IL-2Rαγ+ BAF-BO3 cells that express mutant S− IL-2Rβ subunit; experiment: Proliferation assay, BAF-BO3 cells expressing mutant S− IL-2Rβ subunit; type: cell-based, murine; settings: IL-2Rβ lacking serine-rich region (S−), 38 hours
Text: Error bars indicate the mean±standard deviation.
Therefore, the ability of IL-15 to induce the proliferation of IL-2Rαγ^+BAF-BO3 cells that express either the wild-type IL-2Rβ subunit or a mutant IL-2Rβ protein that lacks the serine rich region (S^−).

[9] = tested on: IL-15 binding sites on PHA-activated human PBMCs; experiment: Flow cytometry staining of PHA-activated PBMCs (anti-FLAG biotinylated Ab, streptavidin-RED670)
Protocol: Resting or PHA-activated PBMCs (3×10^5 cells/tube) were washed twice with ice-cold PBS/0.02% sodium azide and incubated in medium containing FLAG-HMK-IL-15 (0.1 μg/100 μl) or, as a control, in medium alone. The incubation was carried out on ice for 30 minutes. The cells were then washed with PBS and incubated for two sequential 30 minute periods at 4° C. with biotin-conjugated anti-FLAG monoclonal antibody (0.5 μg/100 μl) and streptavidin-RED670 (0.5 μg/100 μl). The cells were then counterstained with CD25-PE, CD14-PE, CD16-PE, CD122-PE, CD4-FITC, or CD8-FITC, as indicated. […] Cell surface phenotype was analyzed using FACScan (Becton/Dickinson, Calif.) and Cell Quest software.
The FLAG-HMK-IL-15 fusion protein, biotinylated anti-FLAG antibody, and streptavidin-RED670 were employed to detect expression of IL-15 binding sites on human PBMCs by cytofluorometric analysis. […] The stained cells were analyzed by flow cytometry (FIG. 4A). […] Both activated CD4^+ and CD8^+ cells express IL-15α chains (FIG. 4C); Activation induced IL-15α chains were also detected on CD14^+ (monocyte/macrophage) cells and CD16^+ (natural killer) cells.
PHA-activated PBMCs were washed and incubated with medium alone, or with the FLAG-HMK-IL-15 double mutant. […] The stained cells were analyzed by flow cytometry (FIG. 17).

Molecule: C[C@@H]1C[C@H]2[C@@H]3CCC4=CC(=O)C=C[C@]4(C)[C@@]3(F)[C@@H](O)C[C@]2(C)[C@@]1(O)C(=O)CO [dexamethasone]
- proliferative response to IL-2 [1]: not inhibited

Molecule: O=c1c(-c2ccc(O)cc2)coc2cc(O)cc(O)c12 [genistein]
- cell viability ([2]; genistein 10 μg/ml, 3 days of incubation): 659±15 % of the control

Molecule: CO[C@H]1C[C@@H]2CC[C@@H](C)[C@@](O)(O2)C(=O)C(=O)N2CCCC[C@H]2C(=O)O[C@H]([C@H](C)C[C@@H]2CC[C@@H](O)[C@H](OC)C2)CC(=O)[C@H](C)/C=C(\C)[C@@H](O)[C@@H](OC)C(=O)[C@H](C)C[C@H](C)/C=C/C=C/C=C/1C [rapamycin]
- cell viability ([2]; human, 3 days, 10 ng/ml): 8.5%±10%

Molecule: FLAG-HMK-IL-15 Q149D single mutant: IL-15 single mutant, glutamine at position 149 changed to aspartate, FLAG-HMK tagged
- cell proliferation ([3H]-TdR incorporation) [3]: stimulated cellular proliferation

Molecule: FLAG-HMK-IL-15: IL-15 polypeptide having an N-terminus covalently bound to the 18 amino acid FLAG-HMK-sequence
- binding to the IL-15Rα subunit on mitogen-activated PBMCs ([4]; [32P]-labeled protein, DSS cross-linking, 4° C.): site specific binding
- cell proliferation ([3H]-TdR incorporation) [5]: proliferate in response to
- cell proliferation ([3H]-TdR incorporation) [3]: stimulates proliferation; also recorded: stimulated cellular proliferation
- cell proliferation ([3H]-TdR incorporation) [6]: does not, however, stimulate the proliferation
- binding to leukemia cells [7]: bind leukemia cells

Molecule: IL-15: recombinant human IL-15 obtained from PeproTech
- competition of [32P]-FLAG-HMK-IL-15 cross-linked band ([4]; molar excess of competitor): failed to detect
- cell proliferation ([3H]-TdR incorporation) [3]: stimulate the proliferation; also recorded: stimulated cellular proliferation
- cell proliferation [8]: neither cytokine is able to stimulate
- blocking of FLAG-HMK-IL-15 binding to PHA activated PBMCs ([9]; molar excess of competitor): blocked

Molecule: double mutant IL-15: human IL-15 protein bearing a double mutation (Q149D; Q156D), FLAG-HMK tagged
- inhibition of BAF-BO3 proliferation ([3]; IL-15 + double mutant, 30 μl (approximately 50 μg/ml) versus 20 μL of the same concentration): inhibited proliferation more completely
- cell proliferation ([3H]-TdR incorporation) [3]: did not proliferate
- binding to PHA-activated human PBMCs ([9]; flow cytometry): bind PHA-activated human PBMCs
